Measurements from ChEMBL document CHEMBL1122312, “Synthesis and 5-lipoxygenase inhibitory activities of eicosanoid compounds” (J Med Chem, 1983).

Each molecule was assayed on Arachidonate 5-lipoxygenase (Cavia porcellus) (assay: Inhibitory activity against 5-lipoxygenase at a dose of 0.1 mM).

inhibition [%]	Compound
5	CCCCC/C=C\C/C=C\C/C=C\CC1CC1CCCC(=O)O (stereo not given)
78	CCCCC/C=C\C\C=C/C=C/C=C/[C@@H]1O[C@H]1CCCC(=O)O
49	CCCCCCCCCCCCCCC1CC1CCCC(=O)O (stereo in doubt; 23)
34	CCCCC/C=C\C/C=C\C/C=C\C1(/C=C\CCCC(=O)O)CC1
47	CCCCC/C=C\C/C=C\C/C=C\C=C\C(CO)CCCC(=O)O (stereo not given)
1	CCCCCCCCCCCCCCC1CC1CCCC(=O)O (stereo in doubt; 25)
98	CCCCC/C=C\C\C=C/C=C/C=C/C1CC1CCCC(=O)O (stereo not given)
93	CCCCC/C=C\C/C=C\C/C=C\C=C\C(=O)CCCC(=O)OC
86	CCCCC/C=C\C\C=C/C=C/C=C/C1CC1CCCCC(=O)O (stereo not given)

Compound	inhibition [%]
CCCCC/C=C\C\C=C/C=C/C=C/C1SC1CCCC(=O)OC (stereo not given)	60
